In ChEMBL document CHEMBL1201862, “PubChem BioAssay data set” (2004):
Activity calls are given as the source filed them.

Columns and labels:
[1] = Luminescence Cell-Based Dose Retest to Confirm Inhibitors of Cancer Stem Cells. [Related pubchem assays (depositor defined):AID2717, AID2721]; type: functional; details: Homo sapiens
[2] = test system: INS1; assay: beta cell apoptosis inhibitors, cytokine rescue, dose response, luminescence, retest (AID 449756); type: functional, cell-based; details: Rattus norvegicus, INS1;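 further: cell death triggered by IL-1 beta plus TNF-alpha plus IFN-gamma mixture; protective hits raise ATP signal compared with cytokine alone wells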
[3] = molecular target: Cytochrome P450 2C19 (Homo sapiens, UniProt P33261); assay: Cytochrome panel assay with activity outcomes. Panel member name: p450-cyp2c19 Compounds with AC50 equal or less than 10 uM are considered active; type: functional
[4] = molecular target: Cytochrome P450 3A4 (Homo sapiens, UniProt P08684);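 further: CYP3A4 tested as one member of a cytochrome P450 panel screen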
[5] = molecular target: T1, Cytochrome P450 1A2 (Homo sapiens, UniProt P05177);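 further: PubChem cytochrome P450 panel assay, CYP1A2 panel member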
T1 sequence (P05177 whole entry): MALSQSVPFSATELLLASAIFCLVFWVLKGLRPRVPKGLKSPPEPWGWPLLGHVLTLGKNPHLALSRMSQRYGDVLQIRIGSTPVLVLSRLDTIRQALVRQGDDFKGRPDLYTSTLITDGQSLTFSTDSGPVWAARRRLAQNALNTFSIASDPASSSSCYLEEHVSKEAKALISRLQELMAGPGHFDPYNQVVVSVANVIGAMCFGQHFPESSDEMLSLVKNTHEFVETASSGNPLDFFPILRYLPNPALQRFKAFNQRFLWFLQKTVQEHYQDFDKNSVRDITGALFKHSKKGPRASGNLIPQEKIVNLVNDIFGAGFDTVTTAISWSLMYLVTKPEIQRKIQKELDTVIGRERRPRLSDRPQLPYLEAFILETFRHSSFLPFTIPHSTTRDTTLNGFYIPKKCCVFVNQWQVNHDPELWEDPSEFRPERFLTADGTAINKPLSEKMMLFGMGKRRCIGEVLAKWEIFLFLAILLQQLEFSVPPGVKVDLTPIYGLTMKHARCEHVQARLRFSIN

[6] = molecular target: Cytochrome P450 2D6 (Homo sapiens, UniProt P10635);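 further: CYP2D6 member of a cytochrome P450 panel assay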
[7] = molecular target: T2, Heat shock factor protein 1 (Mus musculus, UniProt P38532); assay: HSF1 potentiators in luciferase reporter cells, confirmation, cell-based, NIH3T3, luminescence, dose retest (AID 435004); type: functional;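 further: stress induced by proteasome inhibitor MG132 added 30 min after compound; luciferase reporter driven by HSF1 response element in NIH3T3 cells; actives raise luminescence as potentiators of the MG132 stress response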
T2 sequence (P38532 whole entry): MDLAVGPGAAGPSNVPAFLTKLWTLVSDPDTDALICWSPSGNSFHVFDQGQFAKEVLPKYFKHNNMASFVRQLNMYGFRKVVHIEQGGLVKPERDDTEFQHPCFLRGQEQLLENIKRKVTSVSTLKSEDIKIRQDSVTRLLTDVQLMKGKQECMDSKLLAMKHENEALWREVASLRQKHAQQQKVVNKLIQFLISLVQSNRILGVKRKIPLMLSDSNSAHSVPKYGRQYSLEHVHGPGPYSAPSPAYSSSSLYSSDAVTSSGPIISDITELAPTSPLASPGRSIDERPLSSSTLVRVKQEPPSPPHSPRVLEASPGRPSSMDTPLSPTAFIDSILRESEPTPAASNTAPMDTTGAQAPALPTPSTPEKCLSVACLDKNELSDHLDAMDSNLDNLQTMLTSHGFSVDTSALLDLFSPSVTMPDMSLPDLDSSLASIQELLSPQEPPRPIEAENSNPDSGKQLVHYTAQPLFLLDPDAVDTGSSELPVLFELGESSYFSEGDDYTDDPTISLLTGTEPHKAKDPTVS

[8] = molecular target: T3, Replicative DNA helicase DnaB (Mycobacterium tuberculosis, UniProt P9WMR3); assay: DnaB intein splicing inhibitors, dose response, biochemical, cell-free fluorescence (AID 449749); type: functional
T3 sequence (P9WMR3 whole entry): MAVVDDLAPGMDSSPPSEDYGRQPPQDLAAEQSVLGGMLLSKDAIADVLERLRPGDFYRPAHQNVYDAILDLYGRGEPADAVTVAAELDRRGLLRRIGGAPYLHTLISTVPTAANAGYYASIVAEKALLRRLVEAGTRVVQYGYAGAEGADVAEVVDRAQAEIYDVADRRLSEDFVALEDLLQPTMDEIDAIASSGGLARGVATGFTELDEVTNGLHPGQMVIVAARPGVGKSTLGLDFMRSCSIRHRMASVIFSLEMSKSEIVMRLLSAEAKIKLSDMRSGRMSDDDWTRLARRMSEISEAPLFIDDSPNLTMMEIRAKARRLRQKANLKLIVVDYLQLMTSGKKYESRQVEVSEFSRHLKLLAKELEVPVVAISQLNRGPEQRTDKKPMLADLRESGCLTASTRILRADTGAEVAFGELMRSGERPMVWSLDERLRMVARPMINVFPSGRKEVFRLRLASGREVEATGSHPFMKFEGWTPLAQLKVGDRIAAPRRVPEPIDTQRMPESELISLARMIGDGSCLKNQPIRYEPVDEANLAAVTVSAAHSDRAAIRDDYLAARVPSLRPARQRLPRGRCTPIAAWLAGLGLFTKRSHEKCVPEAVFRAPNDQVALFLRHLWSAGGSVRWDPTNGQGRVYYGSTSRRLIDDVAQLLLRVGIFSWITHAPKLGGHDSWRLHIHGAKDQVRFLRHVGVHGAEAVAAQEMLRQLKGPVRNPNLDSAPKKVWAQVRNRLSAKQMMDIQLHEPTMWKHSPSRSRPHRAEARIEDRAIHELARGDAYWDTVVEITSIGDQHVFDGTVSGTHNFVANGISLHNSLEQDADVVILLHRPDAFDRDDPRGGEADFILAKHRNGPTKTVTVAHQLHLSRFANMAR

[9] = molecular target: T4, Protein RecA (Mycobacterium tuberculosis, UniProt P9WHJ3); assay: Fluorescence Cell-Free Homogeneous Dose Retest to Identify Inhibitors of RecA-Intein Splicing Activity. [Related pubchem assays (depositor defined):AID2097, AID2223, AID489010, AID492950]; type: functional
T4 sequence (P9WHJ3 whole entry): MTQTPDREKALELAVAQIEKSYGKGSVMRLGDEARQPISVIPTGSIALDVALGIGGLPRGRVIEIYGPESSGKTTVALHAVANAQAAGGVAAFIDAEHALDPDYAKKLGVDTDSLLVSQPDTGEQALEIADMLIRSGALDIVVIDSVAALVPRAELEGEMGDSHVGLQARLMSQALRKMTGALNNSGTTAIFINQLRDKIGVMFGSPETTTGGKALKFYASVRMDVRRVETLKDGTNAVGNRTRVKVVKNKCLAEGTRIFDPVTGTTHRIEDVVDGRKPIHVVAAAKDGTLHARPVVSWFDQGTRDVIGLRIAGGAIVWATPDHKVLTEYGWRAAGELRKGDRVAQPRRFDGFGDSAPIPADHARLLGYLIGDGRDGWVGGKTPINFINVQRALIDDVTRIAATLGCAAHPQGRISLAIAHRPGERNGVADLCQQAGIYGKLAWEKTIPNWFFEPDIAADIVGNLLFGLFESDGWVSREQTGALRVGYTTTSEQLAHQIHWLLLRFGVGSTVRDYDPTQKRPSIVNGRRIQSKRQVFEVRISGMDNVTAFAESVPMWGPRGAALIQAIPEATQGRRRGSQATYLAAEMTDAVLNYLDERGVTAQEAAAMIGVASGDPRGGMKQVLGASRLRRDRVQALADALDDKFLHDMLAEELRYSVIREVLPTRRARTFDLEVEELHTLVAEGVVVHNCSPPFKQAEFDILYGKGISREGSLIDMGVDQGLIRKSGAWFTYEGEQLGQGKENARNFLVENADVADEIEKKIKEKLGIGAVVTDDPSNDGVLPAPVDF

[10] = cytotoxicity toward NIH3T3 fibroblasts, dose response, counter-screen, cell-based, ATP luminescence, mouse fibroblasts (AID 2010); type: functional;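 further: cells exposed to compound for about 90 hours before reading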
[11] = inhibitors of intracellular T. cruzi replication, confirmation, NIH3T3 host cells, beta-gal luminescence (AID 2044); type: functional, cell-based;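 further: intracellular parasites grown in NIH/3T3 mouse fibroblasts as host cells; luminescent beta-galactosidase reporter signal from transgenic T. cruzi replicating inside host cells; inhibitors lower the luminescence signal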
[12] = inhibitors of firefly luciferase expression or activity, dose response, H4 neuroglioma cells, luminescence (AID 1990); type: functional, cell-based
[13] = Luminescence Cell-Based Dose Response HTS to Identify Inhibitors of 5'UTR Stem-Loop Driven Prion Protein mRNA Translation in H4 Neuroglioblastoma Cells. [Related pubchem assays: 1827 (Project Summary), 1813 (Primary HTS)]; type: functional
[14] = inhibitors of SNCA 5'UTR-driven reporter translation, confirmation, H4 neuroglioma cells, luminescence (AID 1988); type: functional, cell-based

Sequence of Cytochrome P450 2C19 (P33261 whole entry): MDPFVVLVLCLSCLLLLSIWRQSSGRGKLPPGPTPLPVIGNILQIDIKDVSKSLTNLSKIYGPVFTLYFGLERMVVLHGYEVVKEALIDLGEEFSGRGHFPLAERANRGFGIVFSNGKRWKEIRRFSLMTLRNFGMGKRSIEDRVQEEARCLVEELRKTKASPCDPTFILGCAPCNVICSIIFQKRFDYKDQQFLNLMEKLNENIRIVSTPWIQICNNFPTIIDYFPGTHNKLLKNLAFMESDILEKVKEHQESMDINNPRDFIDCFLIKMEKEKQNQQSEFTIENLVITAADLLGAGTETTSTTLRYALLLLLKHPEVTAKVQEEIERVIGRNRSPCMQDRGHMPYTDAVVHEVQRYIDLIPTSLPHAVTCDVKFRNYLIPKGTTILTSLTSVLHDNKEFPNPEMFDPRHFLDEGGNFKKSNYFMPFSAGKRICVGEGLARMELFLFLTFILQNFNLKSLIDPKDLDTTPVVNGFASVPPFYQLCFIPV
Sequence of Cytochrome P450 2D6 (P10635 whole entry): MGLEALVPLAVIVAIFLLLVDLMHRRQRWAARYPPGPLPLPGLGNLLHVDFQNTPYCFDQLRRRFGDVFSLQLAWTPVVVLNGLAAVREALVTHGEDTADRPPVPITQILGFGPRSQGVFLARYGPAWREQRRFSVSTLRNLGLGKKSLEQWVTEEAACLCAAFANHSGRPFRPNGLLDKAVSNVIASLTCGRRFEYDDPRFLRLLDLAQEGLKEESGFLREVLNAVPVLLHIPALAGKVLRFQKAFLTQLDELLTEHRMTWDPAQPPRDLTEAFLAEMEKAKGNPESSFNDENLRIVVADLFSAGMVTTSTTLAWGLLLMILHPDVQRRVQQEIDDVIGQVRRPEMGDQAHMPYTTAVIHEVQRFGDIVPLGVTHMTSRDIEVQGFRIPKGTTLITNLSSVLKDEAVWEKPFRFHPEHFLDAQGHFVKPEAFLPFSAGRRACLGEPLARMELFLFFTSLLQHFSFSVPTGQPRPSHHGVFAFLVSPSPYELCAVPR
Sequence of Cytochrome P450 3A4 (P08684 whole entry): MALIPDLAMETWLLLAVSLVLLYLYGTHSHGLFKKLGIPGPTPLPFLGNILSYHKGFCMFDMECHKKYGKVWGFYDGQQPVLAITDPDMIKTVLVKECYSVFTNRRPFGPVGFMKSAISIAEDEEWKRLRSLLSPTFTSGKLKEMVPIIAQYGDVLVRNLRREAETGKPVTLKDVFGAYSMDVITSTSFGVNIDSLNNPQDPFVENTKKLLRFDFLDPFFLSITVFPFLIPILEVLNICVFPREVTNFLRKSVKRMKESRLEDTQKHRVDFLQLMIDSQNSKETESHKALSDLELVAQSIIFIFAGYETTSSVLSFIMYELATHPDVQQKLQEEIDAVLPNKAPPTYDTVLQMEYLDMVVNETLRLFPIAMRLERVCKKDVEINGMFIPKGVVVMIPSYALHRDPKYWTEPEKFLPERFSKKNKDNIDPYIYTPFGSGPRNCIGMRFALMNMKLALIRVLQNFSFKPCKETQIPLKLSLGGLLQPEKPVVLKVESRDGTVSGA

## CC(NC(=O)C1CCC(C(=O)NC(C)c2ccccc2)CC1)c1ccccc1 (stereo not given)
[1]
  AC50: > 195 µM (inactive)
[2]
  AC50: > 260 µM (inactive)

## COc1c(O)ccc2c1CN1CCc3cc4c(cc3[C@@H]1C2)OCO4
[3]; read-out: AC50
  AC50: 3.98 µM (inconclusive)
[4]
  AC50: 5.01 µM (inconclusive)
[5]
  AC50: 0.501 µM (inconclusive)

## CC(C)C(=O)NCCc1nc2ccccc2n1CCCOc1ccc(Cl)cc1
[5]
  AC50: 28.2 µM (inconclusive)

## CCCCN(CC)C(=O)Cc1ccccc1OC
[6]
  AC50: 28.2 µM (inconclusive)

## CCOc1ccc(NC(=O)Nc2ccc(Cc3ccncc3)cc2)cc1
[1]
  AC50: 8.67 µM (active)

## CN1CCN(C2CC(=O)N(Cc3ccc(N4CCCC4=O)cc3)C2=O)CC1 (stereo not given)
[3]
  AC50: inconclusive

## COc1ccc(N=Nc2ccc(CO)cc2)cc1
[7]
  EC50: > 260 µM (inactive)

## CSc1nc2n(n1)C(c1cc(Br)ccc1F)C(C(=O)N(C)C)=C(C)N2 (stereo not given)
[4]
  AC50: 14.1 µM (inconclusive)
[5]
  AC50: 25.1 µM (inconclusive)

## CCOc1ncccc1C(=O)N(C)CC1COc2ccccc2O1 (stereo not given)
[7]
  EC50: > 260 µM (inactive)

## Cc1ccc(F)cc1NC(=O)N1CCCN(c2ccc(C(F)(F)F)cn2)CC1
[7]
  EC50: > 260 µM (inactive)

## CC1CCC(C(=O)NC(C(=O)N2CCC(N3CCCCC3)CC2)C(C)C)CC1 (stereo not given)
[3]; read-out: AC50
  AC50: 8.91 µM (inconclusive)
[4]
  AC50: 14.1 µM (inconclusive)

## CCN1CCN(Cc2ccc(OCc3ccccc3)cc2)CC1
[1]
  AC50: 1.89 µM (active)

## Fc1ccc(Nc2ccnc(-c3ccccc3C(F)(F)F)n2)cc1
[6]
  AC50: 39.8 µM (inconclusive)

## Cc1cc(NC(=O)COc2ccc(Cl)cc2Cl)n(-c2ccccc2)n1
[6]
  AC50: 7.08 µM (inconclusive)

## COc1ccc(CNc2nc(-c3cccc(NS(C)(=O)=O)c3)nc3ccccc23)c(OC)c1
[6]
  AC50: 12.6 µM (inconclusive)

## O=C(CSc1ncnc2c1nnn2-c1ccc(F)cc1)NCC1CCCO1 (stereo not given)
[8]
  AC50: 3.14 µM (active)
[7]
  EC50: 36.2 µM (active)
[9]
  EC50: 3.67 µM (active)

## O=C(NNc1c(F)c(F)cc(F)c1F)c1ccc(Cl)nc1
[7]
  EC50: > 260 µM (inactive)

## CN1CCN(c2nc(-c3cccc(C#N)c3)nc3ccccc23)CC1
[6]
  AC50: 12.6 µM (inconclusive)

## CC[C@@H]1CC(=O)N(SC[C@H](N)C(=O)O)C1=O
[3]
  AC50: inconclusive

## CC(=O)N1c2ccc(Cl)cc2C2C=CCC2C1c1cccc2ccccc12 (stereo not given)
[1]
  AC50: 2.27 µM (active)

## COc1ncc2nc(CCc3ccccc3)c(=O)n(Cc3cccs3)c2n1
[6]
  AC50: 12.6 µM (inconclusive)

## COc1ccc2c3c(ccc2c1)N[C@H](C(=O)O)CC3
[5]
  AC50: 0.501 µM (inconclusive)

## O=C(NC(=S)Nc1ccccc1C(F)(F)F)c1ccccc1F
[7]
  EC50: 143 µM (active)

## CN(Cc1ccco1)c1ccnc(-c2cccc(C#N)c2)n1
[6]
  AC50: 20 µM (inconclusive)

## COc1ccccc1-c1c[nH]nc1-c1ccc(OCc2ccccc2F)cc1O
[1]
  AC50: 4.88 µM (active)

## CCOC(=O)C(/C=N/c1ccc(C#N)cc1)=C(/O)OCC
[7]
  EC50: > 260 µM (inactive)

## Cc1noc(C)c1-c1nc(NCCN2CCOCC2)c2ccccc2n1
[6]
  AC50: 25.1 µM (inconclusive)

## c1cc(CNCCCN2CCOCC2)ccn1
[4]
  AC50: 31.6 µM (inconclusive)
[6]
  AC50: 15.8 µM (inconclusive)

## COc1ccc(N2CCN(c3ncnc4c3cnn4-c3ccc(C)cc3C)CC2)cc1
[7]
  EC50: > 260 µM (inactive)

## COc1ccc(NS(=O)(=O)c2cccc(C(=O)N/N=C(\C)c3ccc(-n4ccnc4)cc3)c2)cc1
[1]
  AC50: > 195 µM (inactive)

## Cc1ccc2nc(N(CCCN(C)C)C(=O)c3cc(-c4cccs4)nc4ccccc34)sc2c1
[1]
  AC50: 4.45 µM (active)

## Cc1ccc2sc(N(CCCN(C)C)C(=O)c3ccc(S(=O)(=O)N4CCCCCC4)cc3)nc2c1C
[1]
  AC50: 3.12 µM (active)
[10]
  EC50: 9.3 µM (active)
[11]
  EC50: 0.445 µM (active)

## O=C(O)CCc1ccc(-c2ccc(Br)cc2)n1Cc1ccco1
[7]
  EC50: > 260 µM (inactive)

## CCOC(=O)C1CCN(Cc2cnc(Oc3ccc(OC)cc3)s2)CC1
[6]
  AC50: 22.4 µM (inconclusive)

## O=[N+]([O-])c1ccc(C2CCCC/C2=N\OCc2cccc(F)c2)c([N+](=O)[O-])c1 (stereo not given)
[10]
  EC50: > 60 µM (not active)
[11]
  EC50: 0.518 µM (active)
[5]
  AC50: 15.8 µM (inconclusive)

## CC(C)(C)c1ccc(COC(=O)CNC(=O)CNC(=O)Cc2ccccc2)cc1
[3]; read-out: AC50
  AC50: 31.6 µM (inconclusive)

## C=CCCC(=O)Nc1nc(C)c(-c2csc(Nc3cc(OC)ccc3OC)n2)s1
[12]
  EC50: > 120 µM (not active)
[13]
  EC50: 12.1 µM (active)
[14]
  EC50: 5.52 µM (active)
[1]
  AC50: 0.71 µM (active)

## Cc1cc(C(=O)CN2C(=O)NC3(CCCCC3)C2=O)c(C)n1Cc1ccco1
[7]
  EC50: 44 µM (active)

## COc1cc(C(=O)OC2CC3CCC2(C)C3(C)C)ccc1OC(C)=O (stereo not given)
[1]
  AC50: 3.75 µM (active)

## CCN(CC)C(=O)CSc1ncnc2sc(C)c(C)c12
[7]
  EC50: > 260 µM (inactive)
